Measurements from PMC4877593, “Design and Synthesis of Potent in Vitro and in Vivo Anticancer Agents Based on 1-(3′,4′,5′-Trimethoxyphenyl)-2-Aryl-1H-Imidazole” (Scientific Reports, 2016).
Read-outs that look alike come from different tables or passages of the source.

How the values were obtained:
[1] = tested on: HeLa; assay: In vitro antiproliferative activity (MTT), HeLa; format: cell-based; details: Homo sapiens, tumor cell proliferation, 72 h, mean ± SE
Method: (§1) Human T-cell leukemia (CCRF-CEM and Jurkat) and human B-cell leukemia (SEM) cells were grown in RPMI-1640 medium (Gibco, Milano, Italy). Breast adenocarcinoma (MCF7), human cervix carcinoma (HeLa), and human colon adenocarcinoma (HT-29) cells were grown in DMEM medium (Gibco, Milano, Italy), all supplemented with 115 units/mL penicillin G (Gibco, Milano, Italy), 115 μg/mL streptomycin (Invitrogen, Milano, Italy), and 10% fetal bovine serum (Invitrogen, Milano, Italy). Stock solutions (10 mM) of the different compounds were obtained by dissolving them in dimethyl sulfoxide (DMSO). Individual wells of a 96-well tissue culture microtiter plate were inoculated with 100 μL of complete medium containing 8 × 10^3 cells. The plates were incubated at 37 °C in a humidified 5% CO2 incubator for 18 h prior to the experiments. After medium removal, 100 μL of fresh medium containing the test compound at different concentrations was added to each well in triplicate and incubated at 37 °C for 72 h. The percentage of DMSO in the medium never exceeded 0.25%. This was also the maximum DMSO concentration in all cell-based assays described below. […] Different concentrations of the test compounds were added, and viability was determined 72 h later by the MTT test. For cytotoxicity evaluations in resting PBL cultures, non-adherent cells were resuspended (5 × 10^5 cells/mL) and treated for 72 h with the test compounds, as described above.

[2] = tested on: HT-29; assay: In vitro antiproliferative activity (MTT), HT-29; format: cell-based; details: Homo sapiens, tumor cell proliferation, 72 h, mean ± SE
Method: as §1

[3] = tested on: A549; assay: In vitro antiproliferative activity (MTT), A549; format: cell-based; details: Homo sapiens, tumor cell proliferation, 72 h, mean ± SE
Method: as §1

[4] = tested on: MCF-7; assay: In vitro antiproliferative activity (MTT), MCF-7; format: cell-based; details: Homo sapiens, MCF7, tumor cell proliferation, 72 h, mean ± SE
Method: as §1

[5] = tested on: Jurkat; assay: In vitro antiproliferative activity (MTT), Jurkat; format: cell-based; details: Homo sapiens, tumor cell proliferation, 72 h, mean ± SE
Method: as §1

[6] = tested on: RS4;11; assay: In vitro antiproliferative activity (MTT), RS4;11; format: cell-based; details: Homo sapiens, tumor cell proliferation, 72 h, mean ± SE
[7] = tested on: HL-60; assay: In vitro antiproliferative activity (MTT), HL-60; format: cell-based; details: Homo sapiens, tumor cell proliferation, 72 h, mean ± SE
[8] = tested on: panel of seven human tumor cell lines; assay: Antiproliferative activity across the panel of seven human tumor cell lines; format: cell-based
Method: as §1

[9] = tested on: bovine brain tubulin; assay: Inhibition of tubulin polymerization (turbidimetry); format: biochemical
Method: To evaluate the effect of the compounds on tubulin assembly in vitro[22], varying concentrations of compounds were preincubated with 10 μM bovine brain tubulin in glutamate buffer at 30 °C and then cooled to 0 °C. After addition of 0.4 mM GTP (final concentration), the mixtures were transferred to 0 °C cuvettes in a recording spectrophotometer equipped with an electronic temperature controller and warmed to 30 °C. Tubulin assembly was followed turbidimetrically at 350 nm. […] The ability of the test compounds to inhibit colchicine binding to tubulin was measured as described, except that the reaction mixtures contained 1 μM tubulin, 5 μM [^3H]colchicine and 1 or 5 μM test compound.

[10] = average over the seven cell lines, read-out: average IC50 values
[11] = tubulin at 10 μM, 20 min incubation, read-out: Tubulin assembly IC50 ± S.D.
[12] = repeated beside the calculated energies, read-out: inhibition of tubulin polymerization IC50 (Table 4)

## COc1ccc(/C=C\c2cc(OC)c(OC)c(OC)c2)cc1O [CA-4, Combretastatin A-4, reference compound]
[1]
  IC50: 4 ± 1 nM
[2]
  IC50: 180 ± 30 nM
[3]
  IC50: 3100 ± 100 nM
[4]
  IC50: 5 ± 0.6 nM
[5]
  IC50: 0.8 ± 0.2 nM
[6]
  IC50: 370 ± 100 nM
[7]
  IC50: 1 ± 0.2 nM
[8]; [10]
  IC50: 523 nM
[9]; [11]
  IC50: […]

## COc1cc(-n2ccnc2-c2ccc(C)cc2)cc(OC)c1OC [Compound 4a, 1-(3′,4′,5′-Trimethoxyphenyl)-2-p-tolyl-1H-imidazole]
[1]
  IC50: 1260 ± 172 nM
[2]
  IC50: 1920 ± 354 nM
[3]
  IC50: 4730 ± 328 nM
[4]
  IC50: 2800 ± 721 nM
[5]
  IC50: 760 ± 136 nM
[6]
  IC50: > 10000 nM
[7]
  IC50: 2100 ± 252 nM
other
  melting point: 142 to 144 °C

## CCc1ccc(-c2nccn2-c2cc(OC)c(OC)c(OC)c2)cc1 [Compound 4b, 2-(4′-Ethylphenyl)-1-(3′,4′,5′-trimethoxyphenyl)-1H-imidazole]
[1]
  IC50: 1980 ± 126 nM
[2]
  IC50: 1400 ± 200 nM
[3]
  IC50: 7000 ± 1150 nM
[4]
  IC50: 2090 ± 374 nM
[5]
  IC50: 4570 ± 758 nM
[6]
  IC50: 5680 ± 259 nM
[7]
  IC50: 4800 ± 451 nM
other
  melting point: 130 to 132 °C

## COc1cc(-n2ccnc2-c2ccc(SC)cc2)cc(OC)c1OC [Compound 4c, 1-(3′,4′,5′-Trimethoxyphenyl)-2-(4′-(methylthio)phenyl)-1H-imidazole]
[1]
  IC50: 337 ± 48 nM
[2]
  IC50: 330 ± 36 nM
[3]
  IC50: 5600 ± 352 nM
[4]
  IC50: 1360 ± 350 nM
[5]
  IC50: 407 ± 24 nM
[6]
  IC50: 800 ± 58 nM
[7]
  IC50: 333 ± 41 nM
other
  melting point: 158 to 160 °C

## COc1ccc(-c2nccn2-c2cc(OC)c(OC)c(OC)c2)cc1F [Compound 4d, 2-(3′-Fluoro-4′-methoxyphenyl)-1-(3′,4′,5′-trimethoxyphenyl)-1H-imidazole]
[1]
  IC50: 51 ± 6.5 nM
[2]
  IC50: 112 ± 15 nM
[3]
  IC50: 121 ± 56 nM
[4]
  IC50: 74 ± 17 nM
[5]
  IC50: 90 ± 23 nM
[6]
  IC50: 217 ± 46 nM
[7]
  IC50: 29 ± 9.5 nM

## COc1ccc(-c2nccn2-c2cc(OC)c(OC)c(OC)c2)cc1Cl [Compound 4e, 2-(3′-Chloro-4′-methoxyphenyl)-1-(3′,4′,5′-trimethoxyphenyl)-1H-imidazole]
[1]
  IC50: 263 ± 39 nM
[2]
  IC50: 647 ± 83 nM
[3]
  IC50: 2600 ± 422 nM
[4]
  IC50: 666 ± 231 nM
[5]
  IC50: 365 ± 25 nM
[6]
  IC50: 715 ± 148 nM
[7]
  IC50: 453 ± 14 nM
other
  melting point: 176 to 178 °C

## COc1ccc(-c2nccn2-c2cc(OC)c(OC)c(OC)c2)cc1C [Compound 4f, 2-(4′-Methoxy-3′-methylphenyl)-1-(3′,4′,5′-trimethoxyphenyl)-1H-imidazole]
[1]
  IC50: 330 ± 25 nM
[2]
  IC50: 377 ± 33 nM
[3]
  IC50: 4720 ± 509 nM
[4]
  IC50: 509 ± 25 nM
[5]
  IC50: 136 ± 38 nM
[6]
  IC50: 475 ± 106 nM
[7]
  IC50: 413 ± 27 nM
other
  melting point: 128 to 130 °C

## COc1cc(-c2nccn2-c2cc(OC)c(OC)c(OC)c2)ccc1C [Compound 4g, 2-(4′-Methyl-3′-methoxyphenyl)-1-(3′,4′,5′-trimethoxyphenyl)-1H-imidazole]
[1]
  IC50: 623 ± 98 nM
[2]
  IC50: > 10000 nM
[3]
  IC50: > 10000 nM
[4]
  IC50: > 10000 nM
[5]
  IC50: 4930 ± 536 nM
[6]
  IC50: 2570 ± 784 nM
[7]
  IC50: > 10000 nM

## COc1cc(-n2ccnc2-c2cc(C)c(OC)c(C)c2)cc(OC)c1OC [Compound 4h, 2-(4′-Methoxy-3′,5′-dimethylphenyl)-1-(3′,4′,5′-trimethoxyphenyl)-1H-imidazole]
[1]
  IC50: 9160 ± 1590 nM
[2]
  IC50: > 10000 nM
[3]
  IC50: > 10000 nM
[4]
  IC50: > 10000 nM
[5]
  IC50: > 10000 nM
[6]
  IC50: > 10000 nM
[7]
  IC50: 3470 ± 467 nM
other
  melting point: 153 to 155 °C

## COc1ccc(-c2nccn2-c2cc(OC)c(OC)c(OC)c2)cc1OC [Compound 4i, 1-(3′,4′,5′-Trimethoxyphenyl)-2-(3′,4′-dimethoxyphenyl)-1H-imidazole]
[1]
  IC50: > 10000 nM
[2]
  IC50: > 10000 nM
[3]
  IC50: > 10000 nM
[4]
  IC50: > 10000 nM
[5]
  IC50: > 10000 nM
[6]
  IC50: > 10000 nM
[7]
  IC50: 3930 ± 517 nM

## COc1cc(-n2ccnc2-c2ccc(OC(F)(F)F)cc2)cc(OC)c1OC [Compound 4j, 1-(3′,4′,5′-Trimethoxyphenyl)-2-(4′-(trifluoromethoxy)phenyl)-1H-imidazole]
[1]
  IC50: > 10000 nM
[2]
  IC50: > 10000 nM
[3]
  IC50: > 10000 nM
[4]
  IC50: > 10000 nM
[5]
  IC50: 6630 ± 338 nM
[6]
  IC50: > 10000 nM
[7]
  IC50: > 10000 nM
other
  melting point: 125 to 127 °C

## CCOc1ccc(-c2nccn2-c2cc(OC)c(OC)c(OC)c2)cc1 [Compound 4k, 2-(4′-Ethoxyphenyl)-1-(3′,4′,5′-trimethoxyphenyl)-1H-imidazole]
[1]
  IC50: 3.7 ± 0.12 nM
[2]
  IC50: 1.8 ± 0.8 nM
[3]
  IC50: 1.9 ± 1 nM
[4]
  IC50: 1.5 ± 0.2 nM
[5]
  IC50: 1.2 ± 0.5 nM
[6]
  IC50: 34.7 nM
[7]
  IC50: 4.8 ± 1.9 nM
[8]; [10]
  IC50: 7.1 nM
[8]; range over seven cancer cell lines, read-out: IC50 values in the seven cell lines (range)
  IC50: 1.8 to 34.7 nM
[9]; [12]
  IC50: 630 nM
[9]; [11]
  IC50: 630 nM
other
  melting point: 132 to 134 °C

## CCOc1cccc(-c2nccn2-c2cc(OC)c(OC)c(OC)c2)c1 [Compound 4l, 2-(3′-Ethoxyphenyl)-1-(3′,4′,5′-trimethoxyphenyl)-1H-imidazole]
[1]
  IC50: > 10000 nM
[2]
  IC50: > 10000 nM
[3]
  IC50: > 10000 nM
[4]
  IC50: > 10000 nM
[5]
  IC50: > 10000 nM
[6]
  IC50: > 10000 nM
[7]
  IC50: > 10000 nM
other
  melting point: 121 to 122 °C

## CCOc1ccccc1-c1nccn1-c1cc(OC)c(OC)c(OC)c1 [Compound 4m, 2-(2′-Ethoxyphenyl)-1-(3′,4′,5′-trimethoxyphenyl)-1H-imidazole]
[1]
  IC50: > 10000 nM
[2]
  IC50: > 10000 nM
[3]
  IC50: > 10000 nM
[4]
  IC50: > 10000 nM
[5]
  IC50: > 10000 nM
[6]
  IC50: > 10000 nM
[7]
  IC50: > 10000 nM
other
  melting point: 130 to 132 °C

## CCSc1ccc(-c2nccn2-c2cc(OC)c(OC)c(OC)c2)cc1 [Compound 4p, 2-(4′-(Ethylthio)phenyl)-1-(3′,4′,5′-trimethoxyphenyl)-1H-imidazole]
[1]
  IC50: 48 ± 2.5 nM
[2]
  IC50: 174 ± 16 nM
[3]
  IC50: 228 ± 81 nM
[4]
  IC50: 69 ± 7 nM
[5]
  IC50: 127 ± 27 nM
[6]
  IC50: 85 ± 20 nM
[7]
  IC50: 12 ± 2.5 nM
other
  melting point: 143 to 145 °C

## CCCOc1ccc(-c2nccn2-c2cc(OC)c(OC)c(OC)c2)cc1 [Compound 4q, 1-(3′,4′,5′-Trimethoxyphenyl)-2-(4′-n-propoxyphenyl)-1H-imidazole]
[1]
  IC50: 2.9 ± 0.8 nM
[2]
  IC50: 15 ± 1.3 nM
[3]
  IC50: 63 ± 18.1 nM
[4]
  IC50: 1.7 ± 0.6 nM
[5]
  IC50: 42 ± 3.9 nM
[6]
  IC50: 91 ± 8.9 nM
[7]
  IC50: 63 ± 17.6 nM
[9]; [12]
  IC50: 1400 nM
[9]; [11]
  IC50: 1400 ± 100 nM
